Results as given in patent US5387684A, “Isoindazole compound” (The Green Cross Corporation, priority 1992, dated 1995).
Where a name gives a salt, the structure may show the parent alone.

target: T1, angiotensin II receptor (Rattus norvegicus, UniProt P25095); experiment: Inhibition of binding of angiotensin II to rat smooth muscle cells (125I-AII); details: ^125 I-Tyr^4-angiotensin II, smooth muscle cells from rat aorta, room temperature, 1 hour; read-out: inhibitory action (IC50) on the binding of angiotensin II to the receptor
T1 sequence (P25095 1-359): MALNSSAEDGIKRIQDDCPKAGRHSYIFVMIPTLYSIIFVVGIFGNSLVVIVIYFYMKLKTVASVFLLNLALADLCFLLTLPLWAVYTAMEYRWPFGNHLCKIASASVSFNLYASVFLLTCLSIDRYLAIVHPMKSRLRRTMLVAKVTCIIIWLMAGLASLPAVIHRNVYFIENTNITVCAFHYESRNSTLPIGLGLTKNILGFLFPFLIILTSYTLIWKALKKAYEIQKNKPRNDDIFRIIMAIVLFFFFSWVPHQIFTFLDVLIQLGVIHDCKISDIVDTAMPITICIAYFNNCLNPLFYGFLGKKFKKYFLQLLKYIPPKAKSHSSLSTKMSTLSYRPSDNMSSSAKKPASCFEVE

How did the IC50 turn out when `CCCCc1nc(Cl)c(CO)n1Cc1ccc2nn(-c3ccccc3-c3nnn[nH]3)c(Br)c2c1` [Example 14, 1-{[3-bromo-2-[2-(1H-tetrazol-5-yl)phenyl]-2H-indazol-5-yl]methyl}-2-butyl-4-chloro-5-(hydroxymethyl)-1H-imidazole] was run?
Its IC50 is 2.5 nM.

Which IC50 does the source give for `CCCCc1nc(Cl)c(C=O)n1Cc1ccc2nn(-c3ccccc3C(=O)O)c(Br)c2c1` [Example 6, 2-butyl-4-chloro-1-[3-bromo-2-(2-carboxyphenyl)-2H-indazol-5-yl]methyl-1H-imidazole-5-carbaldehyde] here?
The IC50 was 19 nM.

`CCc1nc2c(C)cc(C)nc2n1Cc1ccc2nn(-c3cccc(Cl)c3-c3nnn[nH]3)c(Br)c2c1` [Example 25, 3-{[3-bromo-2-[3-chloro-2-(1H-tetrazol-5-yl)-phenyl]-2H-indazol-5-yl]methyl}-2-ethyl-5,7-dimethyl-3H-imidazo[4,5-b]pyridine] was tested. Which IC50 did it give?
The IC50 was 0.72 nM.

How did the IC50 turn out when `CCCCc1nc(Cl)c(CO)n1Cc1ccc2nn(-c3ccccc3C(=O)O)c(Br)c2c1` [Example 4, 1-[3-bromo-2-(2-carboxyphenyl)-2H-indazol-5-yl]methyl-2-butyl-4-chloro-5-(hydroxymethyl)-1H-imidazole] was run?
Its IC50 is 4.3 nM.

`CCCCc1nc2cccnc2n1Cc1ccc2nn(-c3ccccc3C(=O)O)c(Br)c2c1` [sodium salt] was tested. Which IC50 did it give?
The IC50 was 6.7 nM.

How did the IC50 turn out when `CCCCc1nc2cccnc2n1Cc1ccc2nn(-c3ccccc3-c3nnn[nH]3)c(Br)c2c1` [Example 23, 3-{[3-bromo-2-[2-(1H-tetrazol-5-yl)phenyl]-2H-indazol-5-yl]methyl}-2-butyl-3H-imidazo[4,5-b]pyridine] was run?
Its IC50 is 3.1 nM.

For `CCCCc1nc(Cl)c(C(=O)O)n1Cc1ccc2nn(-c3ccccc3C(=O)O)c(Br)c2c1` [Example 9, disodium 1-[3-bromo-2-(2-carboxyphenyl)-2H-indazol-5-yl]methyl-2-butyl-4-chloro-1H-imidazole-5-carboxylate], which IC50 is on record?
The IC50 was 2.5 nM.

How did the IC50 turn out when `CCCCc1nc(Cl)c(CO)n1Cc1ccc2nn(-c3ccccc3C(=O)O)cc2c1` [Example 5, 2-butyl-4-chloro-1-[2-(2-carboxyphenyl)-2H-indazol-5-yl]methyl-5-(hydroxymethyl)-1H-imidazole] was run?
The IC50 was 40 nM.

Which IC50 does the source give for `CCCCc1nc(C(=O)O)c(Cl)n1Cc1ccc2nn(-c3ccccc3C(=O)O)c(Br)c2c1` [Example 10, disodium 2-butyl-5-chloro-1-[3-bromo-2-(2-carboxyphenyl)-2H-indazol-5-yl]methyl-1H-imidazole-4-carboxylate] here?
Its IC50 is 720 nM.

`CCCCc1nc(Cl)c(C=O)n1Cc1ccc2nn(-c3ccccc3C(=O)O)cc2c1` [Example 7, 2-butyl-4-chloro-1-[2-(2-carboxyphenyl)-2H-indazol-5-yl]methyl-1H-imidazole-5-carbaldehyde] was tested. Which IC50 did it give?
The IC50 was 130 nM.

Which IC50 does the source give for `CCc1nc2c(C)cc(C)nc2n1Cc1ccc2nn(-c3ccccc3C(=O)O)c(Br)c2c1` here?
The IC50 was 2 nM.

How did the IC50 turn out when `CCCCc1nc(Cl)c(C=O)n1Cc1ccc2nn(-c3ccccc3-c3nnn[nH]3)c(Br)c2c1` [Example 12, 1-{[3-bromo-2-[2-(1H-tetrazol-5-yl)phenyl]-2H-indazol-5-yl]methyl}-2-butyl-4-chloro-1H-imidazole-5-carbaldehyde] was run?
Its IC50 is 60 nM.

Which IC50 does the source give for `CCc1nc2c(C)cc(C)nc2n1Cc1ccc2nn(-c3ccccc3-c3nnn[nH]3)c(Cl)c2c1` [Example 24, 3-{[3-chloro-2-[2-(1H-tetrazol-5-yl)phenyl]-2H-indazol-5-yl]methyl}-2-ethyl-5,7-dimethyl-3H-imidazo[4,5-b]pyridine] here?
Its IC50 is 0.8 nM.

`CCCc1nc2c(C)ccnc2n1Cc1ccc2nn(-c3ccccc3-c3nnn[nH]3)c(Br)c2c1` [Example 22, 3-{[3-bromo-2-[2-(1H-tetrazol-5-yl)phenyl]-2H-indazol-5-yl]methyl}-7-methyl-2-propyl-3H-imidazo[4,5-b]pyridine] was tested. Which IC50 did it give?
Its IC50 is 1.8 nM.

Which IC50 does the source give for `CCCc1nc2c(C)ccnc2n1Cc1ccc2nn(-c3ccccc3C(=O)O)c(Br)c2c1` [Example 20, 3-[3-bromo-2-(2-carboxyphenyl)-2H-indazol-5-yl]-methyl-7-methyl-2-propyl-3H-imidazo[4,5-b]pyridine] here?
The IC50 was 1.4 nM.

With `CCc1nc2c(C)cc(C)nc2n1Cc1ccc2nn(-c3ccccc3-c3nnn[nH]3)c(Br)c2c1` [Example 21, 3-{[3-bromo-2-[2-(1H-tetrazol-5-yl)phenyl]-2H-indazol-5-yl]methyl}-2-ethyl-5,7-dimethyl-3H-imidazo[4,5-b]pyridine] as the compound, how does the IC50 read?
Its IC50 is 1.1 nM.
